PubChem BioAssay (NCI)
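48-hour exposure; five concentrations; linearly interpolated endpoints. Here, GI50 denotes the concentration required for 50% inhibition of growth. TGI denotes the concentration required for complete inhibition of growth.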

Assays:
Test in all cases: NCI-60 cell line screen, 48 h
[1] = tested on: ACHN renal
[2] = tested on: DU-145 prostate
[3] = tested on: HCT-15 colon
[4] = tested on: HT29 colon
[5] = tested on: MDA-N
[6] = tested on: SF-295 CNS
[7] = tested on: SNB-75 CNS
[8] = tested on: NCI-H460 lung
[9] = tested on: SF-539 CNS
[10] = tested on: SR leukemia

Row | Structure (SMILES) | TGI [1] [µM] | TGI [2] [µM] | TGI [3] [µM] | TGI [4] [µM] | TGI [5] [µM] | TGI [6] [µM] | TGI [7] [µM] | TGI [8] [µM] | TGI [9] [µM] | GI50 [1] [µM] | GI50 [2] [µM] | GI50 [3] [µM] | GI50 [4] [µM] | GI50 [8] [µM] | GI50 [6] [µM] | GI50 [9] [µM] | GI50 [7] [µM] | GI50 [10] [µM] | TGI [10] [µM]
1 | CCCCOC(=O)C1CC[C@H]2[C@@H]3CCc4cc(OC(=O)c5cccc6c(=O)c7ccccc7[nH]c56)ccc4[C@H]3CC[C@]12C (some centres not stated) | 15.6 | 14.9 | 13.5 | 18.6 | 14.5 | 16.1 | 18.3 |  |  |  |  |  |  |  |  |  |  |  | 
2 | Cc1ccc(C2(c3ccc(F)cc3)OC(=O)c3ccccc32)c(O)c1 (configuration not stated) | 28.2 | 28.7 | 32.7 | > 100 | 24.3 | 24.5 | 31.6 | 35.5 | 37.5 |  |  |  |  |  |  |  |  |  | 
3 | O=C1/C(=C/c2ccc(O)cc2)COc2ccc(O)c(O)c21 | 4.72 | 5.69 | 4.07 | 16.9 |  | > 100 | > 100 | 4.69 | 4.97 | 1.99 | 2.19 | 1.31 | 3.52 | 2.16 | 5.36 | 1.82 | 1.78 | 1.1 | > 100
4 | O=C(Cn1c(C(=O)c2ccccc2)nc2ccccc21)c1ccccc1 | > 100 | > 100 | > 100 | > 31.6 |  | > 100 | > 100 | > 100 | > 100 |  |  |  |  |  |  |  |  |  | > 100
5 | Brc1cccc(C2ON=C(c3ccccc3)N2C23CC4CC(CC(C4)C2)C3)c1 (configuration not stated) | > 10 | > 10 | > 10 | > 10 | > 10 | > 10 | > 10 | > 10 | > 10 |  |  |  |  |  |  |  |  |  | 
6 | CNc1ncnc2c1nc(NC1CCCC1)n2C1OC(CO)C(O)C1O (configuration not stated) | > 100 | > 100 | > 100 | > 100 | > 100 | > 100 |  | > 100 | > 100 |  |  |  |  |  |  |  |  |  | 
7 | C/C(=N\Nc1nc2ccccc2s1)c1cc2ccccc2cn1 | > 100 | 12.6 | 34.3 | 11 | > 100 | 19.3 | 32.4 | 33.7 | 25.6 |  |  |  |  |  |  |  |  |  | 
8 | [N-]=[N+]=CC(=O)OCCCCl | > 100 | > 100 | > 100 | > 100 | > 100 | > 100 |  | > 100 |  |  |  |  |  |  |  |  |  |  | > 100
9 | CC1(C)OC2OC(C(COS(=O)(=O)C(F)(F)F)N=[N+]=[N-])C(OC(=O)c3ccccc3)C2O1 (configuration not stated) | > 100 | > 100 | > 100 | > 100 | > 100 | > 100 | > 100 | > 100 | > 100 |  |  |  |  |  |  |  |  |  | 
10 | CN(CCNC(=O)c1c[nH]c2c1Cc1ccccc1-2)CCNC(=O)c1c[nH]c2c1Cc1ccccc1-2 | > 100 | > 100 | > 100 | > 100 | 33.9 | > 100 |  | > 100 | 49.2 |  |  |  |  |  |  |  |  |  | > 100
11 | C=C=CC(NC(=O)c1ccccc1)(C(=O)O)C(F)(F)F (configuration not stated) | > 100 |  | > 100 | > 100 |  | > 100 | > 100 | > 100 | > 100 |  |  |  |  |  |  |  |  |  | > 100
12 | COc1ccccc1C1(c2c(OC)c(=O)c2=O)SCCCS1 | > 100 | > 100 | > 100 | > 100 | > 100 | > 100 | > 100 | > 100 | > 100 |  |  |  |  |  |  |  |  |  | 
13 | CCCCCCCCCCCCCC[n+]1ccc(C)cc1 | 10.9 | 1.83 | 22.4 | 1.82 |  | 17.8 | 2.37 | 2.23 | 4.72 | 3.23 | 0.608 | 4.01 | 0.356 | 0.994 | 3.25 | 1.77 | 0.806 | 0.581 | 2.67
14 | O=C(O)/C=C/c1c[nH]c(=O)[nH]c1=O |  |  | > 500 | > 500 |  | > 232 | > 500 | > 500 | > 500 |  |  |  | > 500 |  | > 158 |  |  |  | 
15 | COc1cc2c(/C=C3/C(=O)N(C)c4ccc(O)cc43)c(Cl)[nH]c2cc1C | 16.8 | 18.4 | 12.8 | 46.7 |  | 2.93 | 20.8 | 19.8 | 0.722 |  |  |  |  |  |  |  |  |  | 1.23
